Results taken from ChEMBL document CHEMBL1155953, “Synthesis and biological evaluation of C-12' substituted vinflunine derivatives” (Bioorg Med Chem Lett, 2008).

Each compound was assayed on A549 (assay: Cytotoxicity against human A549 cells by SRB assay).
Format: functional, cell-based

| Structure (SMILES) | IC50 |
| --- | --- |
| CC[C@]12C=CCN3CC[C@@]4(c5cc([C@@]6(C(=O)OC)C[C@H]7C[C@@H](C(C)(F)F)CN(Cc8c6[nH]c6ccc(NC)cc86)C7)c(OC)cc5N(C)[C@H]4[C@@](O)(C(=O)OC)[C@@H]1OC(C)=O)[C@@H]32 | 6.91 µM |
| CC[C@]12C=CCN3CC[C@@]4(c5cc([C@@]6(C(=O)OC)C[C@H]7C[C@@H](C(C)(F)F)CN(Cc8c6[nH]c6ccc(CNCCO)cc86)C7)c(OC)cc5N(C)[C@H]4[C@@](O)(C(=O)OC)[C@@H]1OC(C)=O)[C@@H]32 | 95.5 µM |
| CC[C@]12C=CCN3CC[C@@]4(c5cc([C@@]6(C(=O)OC)C[C@H]7C[C@@H](C(C)(F)F)CN(Cc8c6[nH]c6ccc(CNCCCN9CCOCC9)cc86)C7)c(OC)cc5N(C)[C@H]4[C@@](O)(C(=O)OC)[C@@H]1OC(C)=O)[C@@H]32 | > 100 µM |
| CC[C@]12C=CCN3CC[C@@]4(c5cc([C@@]6(C(=O)OC)C[C@H]7C[C@@H](C(C)(F)F)CN(Cc8c6[nH]c6ccc(CN9CCOCC9)cc86)C7)c(OC)cc5N(C)[C@H]4[C@@](O)(C(=O)OC)[C@@H]1OC(C)=O)[C@@H]32 | 3.93 µM |
| CC[C@]12C=CCN3CC[C@@]4(c5cc([C@@]6(C(=O)OC)C[C@H]7C[C@@H](C(C)(F)F)CN(CCc8c6[nH]c6ccc(N)cc86)C7)c(OC)cc5N(C)[C@H]4[C@@](O)(C(=O)OC)[C@@H]1OC(C)=O)[C@@H]32 | 37.8 µM |
| CC[C@]12C=CCN3CC[C@@]4(c5cc([C@@]6(C(=O)OC)C[C@H]7C[C@@H](C(C)(F)F)CN(CCc8c6[nH]c6ccc(N(C)C)cc86)C7)c(OC)cc5N(C)[C@H]4[C@@](O)(C(=O)OC)[C@@H]1OC(C)=O)[C@@H]32 | 0.22 µM |
| CCCCNCc1ccc2[nH]c3c(c2c1)CN1C[C@H](C[C@@H](C(C)(F)F)C1)C[C@]3(C(=O)OC)c1cc2c(cc1OC)N(C)[C@H]1[C@@](O)(C(=O)OC)[C@H](OC(C)=O)[C@]3(CC)C=CCN4CC[C@]21[C@@H]43 | 1.74 µM |
| CC[C@]12C=CCN3CC[C@@]4(c5cc([C@@]6(C(=O)OC)C[C@H]7C[C@@H](C(C)(F)F)CN(Cc8c6[nH]c6ccc(CNCCN9CCOCC9)cc86)C7)c(OC)cc5N(C)[C@H]4[C@@](O)(C(=O)OC)[C@@H]1OC(C)=O)[C@@H]32 | > 100 µM |
| CC[C@]12C=CCN3CC[C@@]4(c5cc([C@@]6(C(=O)OC)C[C@H]7C[C@@H](C(C)(F)F)CN(Cc8c6[nH]c6ccc(CNc9ccc(OC)cc9)cc86)C7)c(OC)cc5N(C)[C@H]4[C@@](O)(C(=O)OC)[C@@H]1OC(C)=O)[C@@H]32 | 3.52 µM |
| CC[C@]12C=CCN3CC[C@@]4(c5cc([C@@]6(C(=O)OC)C[C@@H]7C[C@@H](C(C)(F)F)CN(Cc8c6[nH]c6ccccc86)C7)c(OC)cc5N(C)[C@H]4[C@@](O)(C(=O)OC)[C@@H]1OC(C)=O)[C@@H]32 [VINFLUNINE] | 0.08 µM |
